The record followed here is patent US9670227B2, “Thienopyrimidine derivatives, a process for their preparation and pharmaceutical compositions containing them” (LES LABORATOIRES SERVIER, priority 2013, dated 2017).

In general, IC50 refers to the concentration needed to halve the response being measured.

One assay deals with Mcl-1 protein (UniProtKB primary accession number: Q07820) (Homo sapiens, UniProt Q07820). Nature of the assay: Inhibition of Mcl-1 by fluorescence polarisation, Method 1. Format: binding. The following applies: fluorescence polarisation test; Method 1, or Method 2 where the value is underlined (underlining not visible); read-out: IC50 (M) Mcl-1 FP. An outline of the steps: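 Buffer of 10 mM HEPES pH 7.4 with 150 mM NaCl and 0.05% Tween 20 held 5 nM Mcl-1 and 1 nM fluorescein-tagged ligand (final). Compounds were tested as 11-point serial dilutions at 5% final DMSO, and binding was read by FP.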
Chain of Mcl-1 protein (Q07820 whole entry): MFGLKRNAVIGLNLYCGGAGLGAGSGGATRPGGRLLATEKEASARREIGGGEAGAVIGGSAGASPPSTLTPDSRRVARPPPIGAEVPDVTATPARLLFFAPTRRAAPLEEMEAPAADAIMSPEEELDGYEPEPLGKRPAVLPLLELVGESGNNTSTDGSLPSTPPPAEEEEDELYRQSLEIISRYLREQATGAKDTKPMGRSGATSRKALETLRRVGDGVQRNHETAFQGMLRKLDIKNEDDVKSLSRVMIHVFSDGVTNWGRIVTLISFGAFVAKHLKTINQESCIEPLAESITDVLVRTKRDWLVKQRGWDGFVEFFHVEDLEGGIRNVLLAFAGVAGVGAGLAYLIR
(In fluorescence polarisation assays a small probe gives low polarisation when free and higher when bound to something large.)
For the molecule `Cc1c(-c2c(-c3ccc(F)cc3)sc3ncnc(OC(Cc4ccccc4OCc4ccnc(-c5ccccc5F)n4)C(=O)OCC(=O)N(C)C)c23)ccc(OCCN(C)C)c1Cl` [Example 818, 2-(dimethylamino)-2-oxoethyl (2R)-2-{[(5Sa)-5-{3-chloro-4-[2-(dimethylamino)ethoxy]-2-methylphenyl}-6-(4-fluorophenyl)thieno[2,3-d]pyrimidin-4-yl]oxy}-3-(2-{[2-(2-fluorophenyl)pyrimidin-4-yl]methoxy}phenyl)propanoate], the IC50 turned out to be 1.12e-06 M. The same measure, in the same setting: to `COc1ccccc1-c1nccc(COc2ccccc2CC(Oc2ncnc3sc(-c4ccc(F)cc4)c(-c4ccc(OCCN5CC6(CN(C)C6)C5)c(Cl)c4C)c23)C(=O)O)n1` [Example 833, (2R)-2-{[(5Sa)-5-{3-chloro-2-methyl-4-[2-(6-methyl-2,6-diazaspiro[3.3]hept-2-yl)ethoxy]phenyl}-6-(4-fluorophenyl)thieno[2,3-d]pyrimidin-4-yl]oxy}-3-(2-{[2-(2-methoxyphenyl)pyrimidin-4-yl]methoxy}phenyl)propanoic acid] belongs 3.35e-09 M. In the case of `Cc1c(-c2c(-c3ccc(F)cc3)sc3ncnc(OC(Cc4ccccc4OCc4ccnn4C(C)(C)C)C(=O)OCOC(=O)C(C)(C)C)c23)ccc(OCCN(C)C)c1Cl` [Example 821, {[(2R)-3-{2-[(1-tert-butyl-1H-pyrazol-5-yl)methoxy]phenyl}-2-{[(5Sa)-5-{3-chloro-4-[2-(dimethylamino)ethoxy]-2-methylphenyl}-6-(4-fluorophenyl)thieno[2,3-d]pyrimidin-4-yl]oxy}propanoyl]oxy}methyl 2,2-dimethylpropanoate], the IC50 amounted to 3.61e-07 M.

Staying with this assay, now noted: fluorescence polarisation test; Method 2 values are underlined in the patent (underlining not visible here); read-out: IC50 (M) Mcl-1 FP.
On to `CCc1sc2ncnc(OC(Cc3ccccc3)C(=O)O)c2c1-c1ccc(OCC(=O)N2CCN(C)CC2)c(Cl)c1C` [Example 392, (2R)-2-[((5Sa)-5-{3-chloro-2-methyl-4-[2-(4-methylpiperazin-1-yl)-2-oxoethoxy]phenyl}-6-ethylthieno[2,3-d]pyrimidin-4-yl)oxy]-3-phenylpropanoic acid], for which the IC50 is 3e-08 M. The same measure, in the same setting: in the case of `Cc1c(-c2c(-c3ccc(F)o3)sc3ncnc(OC(Cc4ccccc4OCC4CCCO4)C(=O)O)c23)ccc(OCCN2CCN(C)CC2)c1Cl` [Example 150, (2R)-2-{[(5Sa)-5-{3-chloro-2-methyl-4-[2-(4-methylpiperazin-1-yl)ethoxy]phenyl}-6-(5-fluorofuran-2-yl)thieno[2,3-d]pyrimidin-4-yl]oxy}-3-{2-[(2R)-tetrahydrofuran-2-ylmethoxy]phenyl}propanoic acid] it was 9.3e-09 M. The same measure, in the same setting: in the case of `Cc1c(-c2c(-c3ccc(F)o3)sc3ncnc(OC(Cc4ccccc4OCc4ccnc(-c5ccncc5)n4)C(=O)O)c23)ccc(OCCN2CCN(C)CC2)c1Cl` [Example 172, (2R)-2-{[(5Sa)-5-{3-chloro-2-methyl-4-[2-(4-methylpiperazin-1-yl)ethoxy]phenyl}-6-(5-fluorofuran-2-yl)thieno[2,3-d]pyrimidin-4-yl]oxy}-3-(2-{[2-(pyridin-4-yl)pyrimidin-4-yl]methoxy}phenyl)propanoic acid] it was 3e-09 M; in that of `COc1ccccc1CC(Oc1ncnc2sc(-c3ccco3)c(-c3ccc(OCCN4CCN(c5ccccc5)CC4)c(Cl)c3C)c12)C(=O)O` [Example 325, (2R)-2-{[(5Sa)-5-{3-chloro-2-methyl-4-[2-(4-phenylpiperazin-1-yl)ethoxy]phenyl}-6-(furan-2-yl)thieno[2,3-d]pyrimidin-4-yl]oxy}-3-(2-methoxyphenyl)propanoic acid], 5.2e-08 M; in that of `Cc1c(-c2c(-c3ccc(F)cc3)sc3ncnc(OC(Cc4ccccc4OCc4ccnc(-c5cccnc5)n4)C(=O)O)c23)ccc(OCCN2CCN(C)CC2)c1Cl` [Example 32, (2R)-2-{[(5Sa)-5-{3-chloro-2-methyl-4-[2-(4-methylpiperazin-1-yl)ethoxy]phenyl}-6-(4-fluorophenyl)thieno[2,3-d]pyrimidin-4-yl]oxy}-3-(2-{[2-(pyridin-3-yl)pyrimidin-4-yl]methoxy}phenyl)propanoic acid], 4.8e-09 M. Still for that read-out and setting: to `COc1nccc(COc2ccccc2CC(Oc2ncnc3sc(-c4ccc(F)cc4)c(-c4ccc(OCCN5CCN(C)CC5)c(Cl)c4C)c23)C(=O)O)n1` [Example 54, (2R)-2-{[(5Sa)-5-{3-chloro-2-methyl-4-[2-(4-methylpiperazin-1-yl)ethoxy]phenyl}-6-(4-fluorophenyl)thieno[2,3-d]pyrimidin-4-yl]oxy}-3-{2-[(2-methoxypyrimidin-4-yl)methoxy]phenyl}propanoic acid] belongs 5.7e-09 M.

Staying with this assay, now noted: fluorescence polarisation; Method 1, or Method 2; read-out: IC50 (M) Mcl-1 FP.
Regarding `COc1ccccc1-c1nccc(COc2ccccc2CC(Oc2ncnc3sc(C#CCN4CCOCC4)c(-c4ccc(OCCN5CCN(C)CC5)c(Cl)c4C)c23)C(=O)O)n1` [Example 786, (2R)-2-[((5Sa)-5-{3-chloro-2-methyl-4-[2-(4-methylpiperazin-1-yl)ethoxy]phenyl}-6-[3-(morpholin-4-yl)prop-1-yn-1-yl]thieno[2,3-d]pyrimidin-4-yl)oxy]-3-(2-{[2-(2-methoxyphenyl)pyrimidin-4-yl]methoxy}phenyl)propanoic acid], the IC50 was determined as 4.95e-09 M. Same read-out and setting: in the case of `COc1ccc(-c2c(-c3ccc(F)cc3)sc3ncnc(OC(Cc4ccccc4OCc4ccnn4CCN(C)C)C(=O)O)c23)c(C)c1Cl` [Example 663, (2R)-2-{[(5Sa)-5-(3-chloro-4-methoxy-2-methylphenyl)-6-(4-fluorophenyl)thieno[2,3-d]pyrimidin-4-yl]oxy}-3-[2-({1-[2-(dimethylamino)ethyl]-1H-pyrazol-5-yl}methoxy)phenyl]propanoic acid] it was 2.5e-08 M.

For `COc1ccccc1CC(Oc1ncnc2sc(-c3ccc(F)cc3)c(-c3ccc(OCCN4CCN(C)CC4)c(Cl)c3C)c12)C(=O)OCC(F)(F)F` [Example 641, 2,2,2-trifluoroethyl (2R)-2-{[(5Sa)-5-{3-chloro-2-methyl-4-[2-(4-methylpiperazin-1-yl)ethoxy]phenyl}-6-(4-fluorophenyl)thieno[2,3-d]pyrimidin-4-yl]oxy}-3-(2-methoxyphenyl)propanoate], the IC50 was found to be 9.6e-07 M. Turning to `CC#Cc1sc2ncnc(O[C@H](Cc3ccccc3OC)C(=O)O)c2c1-c1cc(F)c(OC)c(Cl)c1C` (single isomer, unassigned) [Example 470], the concentration for half-maximal inhibition (IC50) is 4.8e-07 M. Turning to `COc1ccccc1CC(Oc1ncnc2sc(-c3ccc(C(N)=O)o3)c(-c3ccc(OCCN4CCN(C)CC4)c(Cl)c3C)c12)C(=O)O` [Example 581, (2R)-2-{[6-(5-carbamoylfuran-2-yl)-(5Sa)-5-{3-chloro-2-methyl-4-[2-(4-methylpiperazin-1-yl)ethoxy]phenyl}thieno[2,3-d]pyrimidin-4-yl]oxy}-3-(2-methoxyphenyl)propanoic acid], the half-maximal inhibitory concentration (IC50) came out at 4.2e-07 M. As for `COc1ccccc1CC(Oc1ncnc2sc(-c3cccc(OC(F)(F)F)c3)c(-c3ccc(OCCN4CCN(C)CC4)c(Cl)c3C)c12)C(=O)O` [Example 555, (2R)-2-[((5Sa)-5-{3-chloro-2-methyl-4-[2-(4-methylpiperazin-1-yl)ethoxy]phenyl}-6-[3-(trifluoromethoxy)phenyl]thieno[2,3-d]pyrimidin-4-yl)oxy]-3-(2-methoxyphenyl)propanoic acid], the half-maximal inhibitory concentration (IC50) stood at 3.9e-07 M.

As for `CCc1sc2ncnc(O[C@H](Cc3ccccc3)C(=O)O)c2c1-c1cc2cc(CN(C)C)oc2c(Cl)c1C` [Example 442, (2R)-2-[((5Sa)-5-{7-chloro-2-[(dimethylamino)methyl]-6-methyl-1-benzofuran-5-yl}-6-ethylthieno[2,3-d]pyrimidin-4-yl)oxy]-3-phenylpropanoic acid], the 50% inhibitory concentration (IC50) came to 1.1e-07 M.

The same assay, now with this note: partial inhibitors; @ 1 uM test compound.
For the molecule `COc1nccc(COc2ccccc2C[C@@H](Oc2ncnc3sc(-c4ccc(F)c(OCCN5CCN(C)CC5)c4)c(-c4ccc(OC)c(Cl)c4C)c23)C(=O)O)n1` [Example 697, (2R)-2-{[(5Ra)-5-(3-chloro-4-methoxy-2-methylphenyl)-6-{4-fluoro-3-[2-(4-methylpiperazin-1-yl)ethoxy]phenyl}thieno[2,3-d]pyrimidin-4-yl]oxy}-3-{2-[(2-methoxypyrimidin-4-yl)methoxy]phenyl}propanoic acid], the “percentage fluorescence polarisation inhibition, Mcl-1 FP” value is 45.55% @ 1 uM.

Staying with this assay, now noted: partial inhibitors; @ 10 uM test compound.
In the case of `CC#Cc1sc2ncnc(O[C@H](Cc3ccccc3OC)C(=O)O)c2c1-c1cc(N2CCN(C)CC2)c(OC)c(Cl)c1C` [Example 472, (2R)-2-({(5Ra)-5-[3-chloro-4-methoxy-2-methyl-5-(4-methylpiperazin-1-yl)phenyl]-6-(prop-1-yn-1-yl)thieno[2,3-d]pyrimidin-4-yl}oxy)-3-(2-methoxyphenyl)propanoic acid], the “percentage fluorescence polarisation inhibition, Mcl-1 FP” value stood at 13.05% @ 10 uM. As to `CCOC(=O)C(Cc1ccccc1OCC1CCCO1)Oc1ncnc2sc(-c3ccc(F)cc3)c(-c3ccc(OCCN(C)C)c(Cl)c3C)c12` [Example 630, ethyl (2R)-2-{[(5Sa)-5-{3-chloro-4-[2-(dimethylamino)ethoxy]-2-methylphenyl}-6-(4-fluorophenyl)thieno[2,3-d]pyrimidin-4-yl]oxy}-3-{2-[(2R)-tetrahydrofuran-2-ylmethoxy]phenyl}propanoate], the “percentage fluorescence polarisation inhibition, Mcl-1 FP” value came to 27.95% @ 10 uM.

Still in this assay, the particulars now being: test compound at 10 uM; Method 1, or Method 2 where the value is underlined (underlining not visible).
Take `COCCOC(=O)[C@@H](Cc1ccccc1OCc1ccnc(-c2ccccc2F)n1)Oc1ncnc2sc(-c3ccc(F)cc3)c(-c3ccc(OCCN(C)C)c(Cl)c3C)c12` [Example 799, 2-methoxyethyl (2R)-2-{[(5Sa)-5-{3-chloro-4-[2-(dimethylamino)ethoxy]-2-methylphenyl}-6-(4-fluorophenyl)thieno[2,3-d]pyrimidin-4-yl]oxy}-3-(2-{[2-(2-fluorophenyl)pyrimidin-4-yl]methoxy}phenyl)propanoate]: the “percentage fluorescence polarisation inhibition (Mcl-1 FP), partial inhibitors” value is 59.6% @ 10 uM.
